For 9 molecules, IC50 results are on record in patent US10703757B2, “Compounds and methods for CDK8 modulation and indications therefor” (Plexxikon Inc., priority 2016, dated 2020).

Experiment [1] relates to CDK8 (phosphorylation of STAT1 at serine 727 in A549 cells). Description: Cell based Phospho-STAT1 assay (IFNγ-stimulated A549 cells, AlphaLISA). Particulars: Homo sapiens, A549, A549 cells, phospho-STAT1 after IFNγ stimulation. The procedure, abridged:
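A549 cells given serial compound dilutions for 1 h at 37 °C, then stimulated with IFNγ at 10 ng/mL final for 30 min. Lysate STAT1 Ser727 phosphorylation measured by AlphaLISA; % inhibition vs stimulated/unstimulated DMSO controls, IC50 by nonlinear regression.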

The test system of experiment [2] is CDK8 (TCF/LEF luciferase reporter in HCT116 cells). Description: Cell based TCF/LEF reporter assay (HCT116+TCF/LEF luciferase). The conditions noted are these: Homo sapiens, HCT-116, 24 h. The procedure, abridged:
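HCT116 cells stably carrying a TCF/LEF-luciferase reporter (endogenous mutant β-catenin), seeded overnight, then exposed to serial compound dilutions for 24 h at 37 °C. Luminescence normalized to CellTiter-Fluor viability signal. % inhibition relative to DMSO and 10 uM CCT251545 controls, with IC50 from nonlinear regression.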

Molecules are shown by their SMILES.

As to `Cc1cc(C)n(-c2ccc(-c3cnn4cccc(N5CCC(C#N)CC5)c34)cc2)n1` [Compound P-0253, 1-(3-(4-(3,5-dimethyl-1H-pyrazol-1-yl)phenyl)pyrazolo[1,5-a]pyridin-4-yl)piperidine-4-carbonitrile], the half-maximal inhibitory concentration (IC50) in experiment [1] and in experiment [2] was 0.1 to 1 µM each time.

With `N#CC1CCC(c2nccn3ncc(-c4ccc(-c5cnn(CC6(C#N)CC6)c5)cc4)c23)CC1` (stereo not drawn) [Compound P-0050, (1s,4s)-4-(3-(4-(1-((1-cyanocyclopropyl)methyl)-1H-pyrazol-4-yl)phenyl)pyrazolo[1,5-a]pyrazin-4-yl)cyclohexane-1-carbonitrile], the half-maximal inhibitory concentration (IC50) in experiment [1] and in experiment [2] was 0.0001 to 0.1 µM throughout.

With `N#CC1CC=C(c2nccn3ncc(-c4ccc(Cl)c(F)c4)c23)CC1` (stereo not drawn) [Compound P-0083, 4-(3-(4-chloro-3-fluorophenyl)pyrazolo[1,5-a]pyrazin-4-yl)cyclohex-3-ene-1-carbonitrile], the IC50 in experiment [1] and in experiment [2] was 0.1 to 1 µM throughout.

Regarding `N#CC1CC=C(c2cccn3ncc(-c4ccc5nccnc5c4)c23)CC1` (stereo not drawn) [Compound P-0122, 4-(3-(quinoxalin-6-yl)pyrazolo[1,5-a]pyridin-4-yl)cyclohex-3-ene-1-carbonitrile], the half-maximal inhibitory concentration (IC50) in experiment [1] and in experiment [2] was 0.0001 to 0.1 µM throughout.

With `Cn1cc(-c2ccc(-c3cnn4cccc(C#CC(C)(C)O)c34)cc2)cn1` [Compound P-0429, 2-methyl-4-[3-[4-(1-methylpyrazol-4-yl)phenyl]pyrazolo[1,5-a]pyridin-4-yl]but-3-yn-2-ol], the IC50 in experiment [1] and in experiment [2] was 0.0001 to 0.1 µM each time.

As to `Cn1cc(-c2ccc(-c3cnn4cccc(C5=CCC(C#N)CC5)c34)cc2)cn1` (stereo not drawn) [Compound P-0452, 4-(3-(4-(1-methyl-1H-pyrazol-4-yl)phenyl)pyrazolo[1,5-a]pyridin-4-yl)cyclohex-3-ene-1-carbonitrile], the IC50 in experiment [1] and in experiment [2] was 0.0001 to 0.1 µM in each case.

On to `Cn1cc(-c2ccc(-c3cnc4cccc(C5=CCC(C(N)=O)CC5)n34)cc2)cn1` (stereo not drawn) [Compound P-0416, 4-(3-(4-(1-methyl-1H-pyrazol-4-yl)phenyl)imidazo[1,2-a]pyridin-5-yl)cyclohex-3-ene-1-carboxamide], for which the IC50 in experiment [1] and in experiment [2] was 0.1 to 1 µM each time.

`Cc1ccncc1-c1ccc(-c2cnn3cccc(C#CC(C)(C)O)c23)cc1` [Compound P-0233, 2-methyl-4-(3-(4-(4-methylpyridin-3-yl)phenyl)pyrazolo[1,5-a]pyridin-4-yl)but-3-yl-2-ol]: the values for the IC50 in experiment [1] and in experiment [2] were 1 to 10 µM and 0.1 to 1 µM, respectively.

For the molecule `COc1ccc(-c2cnn3ccnc(C4CCC(C#N)CC4)c23)cc1C` (stereo not drawn) [Compound P-0457, (1s,4s)-4-(3-(4-methoxy-3-methylphenyl)pyrazolo[1,5-a]pyrazin-4-yl)cyclohexane-1-carbonitrile], the concentration for half-maximal inhibition (IC50) in experiment [1] and in experiment [2] was 0.0001 to 0.1 µM throughout.
